“And” between values parts separate entries of the source, which are not always exact repeats. Equal entries are not always repeated. Where two headings read alike, the source gives them in different places. Non-standard residues stand in square brackets, D forms with d. Residues, ends and D or L forms follow the SMILES beside them. Nle = CCCC[C@H](N)C(=O)O
System: SARS-CoV-2 delta variant
Assay type: cell-based
Details: Huh 7.5, replicates

For CCCC[C@@H](C=O)NC(=O)[C@H](CC(C)C)NC(=O)[C@H](CC(C)C)NC(C)=O [MG-101] (Ac-Leu-Leu-[Nle]-aldehyde), the “virus titer of delta variant, Fig 6B data” value (“virus titer of delta variant” for short) (single drug 0.01 μM) was 640000 and 800000 and 400000, the “virus titer of delta variant” value (single drug 0.1 μM) was 400000 and 960000 and 800000 and the “virus titer of delta variant” value (single drug 1 μM) was 240000 (2×) and 160000.

With N[C@@H](CC(=O)N1CCn2c(nnc2C(F)(F)F)C1)Cc1cc(F)c(F)cc1F [Sitagliptin] the “virus titer of delta variant” value (single drug 0.01 μM) was 960000 and 720000 and 480000, the “virus titer of delta variant” value (single drug 0.1 μM) was 720000 and 400000 and 560000 and the “virus titer of delta variant” value (single drug 1 μM) was 560000 and 720000 and 64000.
